Assay results taken from US8940705B2, “Method of treating disease and selectively modulating transcriptional regulation by a glucocorticoid receptor by administering aclacinomycin and dexamethasone” (The Regents of the University of California, priority 2009, dated 2015).

Experiments:
GR [1] = assay: qPCR of endogenous GR target genes, cell line not distinguished (FIG. 4B, 5D); type: cell-based; conditions: with dex, 24 hr
Description: (§1) Quantitative PCR. Total RNA isolation used Trizol and Pure Link (Invitrogen). […] Rpl19 expression was used for data normalization.

androgen receptor (AR) = androgen receptor (AR) (Homo sapiens, UniProt P10275); conditions: Hieronymus et al., Cancer Cell 10:321-330 (2006); cited from earlier work
androgen receptor (AR), sequence (P10275 whole entry, species assumed): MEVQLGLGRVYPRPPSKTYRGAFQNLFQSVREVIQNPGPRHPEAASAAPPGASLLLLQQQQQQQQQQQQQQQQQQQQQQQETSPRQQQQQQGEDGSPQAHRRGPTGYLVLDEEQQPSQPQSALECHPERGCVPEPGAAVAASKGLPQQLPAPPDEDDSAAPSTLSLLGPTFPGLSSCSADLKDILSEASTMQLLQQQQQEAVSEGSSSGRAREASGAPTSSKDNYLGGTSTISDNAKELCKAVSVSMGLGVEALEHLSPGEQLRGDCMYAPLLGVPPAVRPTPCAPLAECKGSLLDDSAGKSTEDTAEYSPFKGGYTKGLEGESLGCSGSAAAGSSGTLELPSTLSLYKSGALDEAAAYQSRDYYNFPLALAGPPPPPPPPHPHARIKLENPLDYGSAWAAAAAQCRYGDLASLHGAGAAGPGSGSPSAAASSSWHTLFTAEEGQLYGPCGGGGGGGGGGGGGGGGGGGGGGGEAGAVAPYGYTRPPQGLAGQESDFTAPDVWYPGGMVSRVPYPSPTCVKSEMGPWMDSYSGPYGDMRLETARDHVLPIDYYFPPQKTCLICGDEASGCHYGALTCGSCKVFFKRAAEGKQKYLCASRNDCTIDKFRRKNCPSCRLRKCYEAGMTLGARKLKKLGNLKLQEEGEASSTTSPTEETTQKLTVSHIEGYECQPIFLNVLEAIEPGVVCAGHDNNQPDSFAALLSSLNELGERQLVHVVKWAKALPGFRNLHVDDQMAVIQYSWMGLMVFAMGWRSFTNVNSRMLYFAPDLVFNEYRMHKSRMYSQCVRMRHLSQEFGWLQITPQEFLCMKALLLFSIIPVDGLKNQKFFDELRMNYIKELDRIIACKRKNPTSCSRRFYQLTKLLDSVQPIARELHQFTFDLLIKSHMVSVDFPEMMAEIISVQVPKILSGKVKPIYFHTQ

GR [2] = target: T1, GR (Homo sapiens, UniProt P04150); assay: Multi-promoter fluorescent protein reporter compound screen for GR modulators; type: cell-based; parameters: endogenous in cells; host or cells: A549; conditions: A549 cells, library compounds 2.5 μM with dex 100 nM; reporter fluorescence relative to plate mean
T1 sequence (P04150 1-777): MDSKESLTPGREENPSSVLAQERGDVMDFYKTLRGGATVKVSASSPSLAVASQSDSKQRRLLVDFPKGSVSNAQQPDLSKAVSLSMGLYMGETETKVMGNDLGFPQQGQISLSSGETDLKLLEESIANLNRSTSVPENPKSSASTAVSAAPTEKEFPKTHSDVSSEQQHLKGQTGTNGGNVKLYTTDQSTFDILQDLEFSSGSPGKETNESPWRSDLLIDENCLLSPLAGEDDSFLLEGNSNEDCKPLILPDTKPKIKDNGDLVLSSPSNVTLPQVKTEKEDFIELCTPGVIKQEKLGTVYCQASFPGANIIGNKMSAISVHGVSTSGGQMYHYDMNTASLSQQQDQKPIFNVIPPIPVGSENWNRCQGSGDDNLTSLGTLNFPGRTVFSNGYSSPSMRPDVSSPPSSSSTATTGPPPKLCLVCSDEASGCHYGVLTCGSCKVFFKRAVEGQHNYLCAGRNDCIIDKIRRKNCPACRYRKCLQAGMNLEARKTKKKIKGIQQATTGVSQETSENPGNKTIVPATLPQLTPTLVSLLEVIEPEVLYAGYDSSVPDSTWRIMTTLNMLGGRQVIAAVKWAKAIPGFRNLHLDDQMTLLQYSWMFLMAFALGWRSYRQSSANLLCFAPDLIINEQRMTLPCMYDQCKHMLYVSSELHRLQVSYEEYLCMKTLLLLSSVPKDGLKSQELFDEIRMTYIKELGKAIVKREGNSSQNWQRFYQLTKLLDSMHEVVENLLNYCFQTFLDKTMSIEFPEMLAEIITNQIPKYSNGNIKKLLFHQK
Experimental: Compound Screen. A549 cells were transfected with an equal mixture of pENaC-CFP, pGILZ-YFP, pFKBP5-OFP (1.3 μg each), or with pSV40-ChFP (4 μg). The next day, cells were mixed (˜1.8×10^4 of the cells triple-transfected with pENaC-CFP, pGILZ-YFP, pFKBP5-OFP; ˜2×10^3 cells transfected with pSV40-ChFP) and replated into 96 well plates (Costar 3603). 2 hours later, library compounds (2.5 μM) and dex (100 nM) were added using a Biomek robot. The following day, cells were fixed for 4 minutes in 4% paraformaldehyde and fluorescence was measured sequentially for each reporter using a Safire plate reader (Tecan). Hits were scored based on the mean and standard deviation (s.d.) of the experimental wells on each plate. Criteria for a hit were if one reporter was more than 1.5×s.d. from the mean in duplicate, or if two reporters were more than 0.8×s.d. from the mean in duplicate. If the control SV40-ChFP was more than 2×s.d. from the mean in a single plate, or 0.8×s.d. in duplicate plates (in the same direction as the GR reporters), the well was not scored as a hit.
We used the system of Example 1 to screen a library of 1040 natural products and FDA-approved drugs for modulators of GR signaling (Abbott, A. Nature 417:109). The screen design is outlined in FIG. 2. The pENaC-CFP, pGILZ-YFP, and pFKBP5-OFP reporters indicated GR signaling, while pSV40-mCh, an internal control, excluded non-specific transcription inhibitors and toxins. We screened the library in duplicate in the presence of saturating dex (100 nM). Z′, a function that reflects the ability to discriminate between control and experimental wells (Zhang, J. H. et al., J Biomol Screen 4:67-73 (1999)), was determined for dex treatment of each GR reporter. The Z′ values were: Z′(ENAC-CFP)=0.68; Z′(GILZ-YFP)=0.64; and Z′(FKBP5-OFP)=0.66. These indicate that the screen should efficiently identify compounds that increase or decrease fluorescence from any of the three experimental promoters (Zhang, J. H. et al., J Biomol Screen 4:67-73 (1999)).

GR [3] = target: T1, GR; assay: Luciferase assays, GR-responsive reporters, A549 cells; type: cell-based; parameters: endogenous in cells; host or cells: A549; conditions: for Dose dependent: whether the drug acted dose-dependently on GR-luciferase reporters; for GR activity (GR-mediated induction of pENaC-luc reporter): pENaC-luc and pSV40-rl
Experimental: (§2) Transfections. The day prior to transfection, ˜3×10^5 cells were plated in 6-well dishes. Transfections used Lipofectamine 2000 (Invitrogen). 4 μg of total plasmid DNA were used for each transfection. For A549 cells, 500 μL of DNA/lipofectamine complex was added to 1.5 ml of DMEM with pen/strep and 5% FBS. For U2OS cells, 500 μl of DNA/lipofectamine complex was added to 1.5 ml of Optimem. After 3-4 hours of incubation, media was replaced with standard growth media.
(§3) Luciferase assays. Luciferase assays used the Promega Dual-Luciferase Reporter system. Briefly, cells were transfected with various firefly luciferase plasmids and pSV40-RL at a ratio of 10:1. The day after transfection, cells were split into 96-well dishes and treated with dex and various drugs. Cells were harvested in 50 μl 1XPLB (Promega) 12-18 hr after drug treatment and luciferase assays were performed on 10 μl of lysate. Luminscence was detected using an Ultra Evolution plate reader (Tecan).

GR [4] = target: T2, GR (Rattus norvegicus, UniProt P06536); assay: Luciferase assays, GR-responsive reporters, U2OS-GR cells; type: cell-based; conditions: pENaC-luc and pSV40-rl, with dex
T2 construct: expressed in transfected cells; host or cells: U2OS-GR
T2 sequence (P06536 1-795): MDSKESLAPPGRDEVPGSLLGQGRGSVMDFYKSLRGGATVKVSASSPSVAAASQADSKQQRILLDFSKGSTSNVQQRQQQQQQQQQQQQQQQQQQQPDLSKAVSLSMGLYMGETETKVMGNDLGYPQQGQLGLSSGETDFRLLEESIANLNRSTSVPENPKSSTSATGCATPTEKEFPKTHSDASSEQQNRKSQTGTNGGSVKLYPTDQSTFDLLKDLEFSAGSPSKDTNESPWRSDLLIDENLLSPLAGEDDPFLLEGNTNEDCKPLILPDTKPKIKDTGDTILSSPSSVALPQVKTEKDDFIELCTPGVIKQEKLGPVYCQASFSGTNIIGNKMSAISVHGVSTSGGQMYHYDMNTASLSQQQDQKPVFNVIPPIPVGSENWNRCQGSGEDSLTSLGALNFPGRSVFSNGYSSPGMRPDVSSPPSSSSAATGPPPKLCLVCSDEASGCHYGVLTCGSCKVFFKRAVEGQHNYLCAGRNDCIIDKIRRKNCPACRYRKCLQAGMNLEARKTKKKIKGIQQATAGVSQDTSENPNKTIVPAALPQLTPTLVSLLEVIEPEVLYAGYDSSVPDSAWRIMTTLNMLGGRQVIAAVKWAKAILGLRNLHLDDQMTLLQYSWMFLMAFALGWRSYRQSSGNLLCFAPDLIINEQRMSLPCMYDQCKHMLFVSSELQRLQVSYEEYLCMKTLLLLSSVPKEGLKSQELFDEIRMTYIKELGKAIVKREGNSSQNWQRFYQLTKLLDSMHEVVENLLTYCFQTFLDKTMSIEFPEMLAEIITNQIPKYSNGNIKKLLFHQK
Experimental: as §2, §3

[5] = tested on: genes that are regulated by glucocorticoids; assay: In vivo screening: qPCR of glucocorticoid-regulated genes in mouse tissues; conditions: mice, 7.5 mg/kg aclacinomycin, one hour later 2.5 mg/kg dexamethasone, tissues after 6 hours
Experimental: Mice were injected with 7.5 mg/kg aclacinomycin. One hour later, mice were injected with 2.5 mg/kg dexamethasone. After 6 hours, lungs, liver, heart and skeletal muscle were harvested for RNA preparation. qPCR was performed on isolated RNA from these tissues to analyze expression levels of various genes that are regulated by glucocorticoids.

GR [6] = target: T1, GR; assay: qPCR of endogenous GR target genes, A549 cells; type: cell-based; parameters: endogenous in cells; host or cells: A549; conditions: with dex, RPL19 reference
Description: as §1

RNA synthesis = conditions: Long et al., Mol Pharmacol 22:152-7 (1982); cited from earlier work

| SMILES | expression of endogenous GR target genes (qPCR), overall (GR [1]) | induction of endogenous ENaC (qPCR) (GR [1]) | androgen receptor (AR) signaling (androgen receptor (AR)) | ENaC-CFP (GR [2]) | FKBP5-OFP (GR [2]) | GILZ-YFP (GR [2]) | Dose dependent (GR [3]) | Dose dependent (GR [3]; listed as pararosaniline) | GR activity (luciferase reporter) (GR [4]) | activation of FKBP5 by dexamethasone ([5]; liver and lung (FIGS. 6-7)) | activation of KLF15 by dexamethasone ([5]; lung (FIG. 8)) | repression of the cytokine CCL2 by dexamethasone ([5]; lung (FIG. 9)) | pSV40-luc activity (GR [3]; A549 cells, low doses of Acl, dex-unresponsive reporter) | GR activity (GR-mediated induction of pENaC-luc reporter) (GR [3]; A549 cells, with dex) | effect on GR-dependent reporter pENaC-luc compared with GR-independent constitutive reporter pSV40-rl (GR [3]; A549 cells, with dex) | expression of endogenous GR target genes (relative mRNA, qPCR) (GR [6]) | IC50 for inhibition of RNA synthesis, compared with aclacinomycin (RNA synthesis) |
| --- | --- | --- | --- | --- | --- | --- | --- | --- | --- | --- | --- | --- | --- | --- | --- | --- | --- |
| N=C1C=CC(=C(c2ccc(N)cc2)c2ccc(N)cc2)C=C1 [Pararosaniline] | selectively modulated endogenous GR target genes | selectively inhibited the induction of endogenous ENaC transcription in comparison to FKBP5 | inhibit | ↓ (0.8 to 2 s.d. less than the mean (↓)) | No effect | ↓ (0.8 to 2 s.d. less than the mean (↓)) | yes | dose dependent effects | – | – | – | – | – | – | – | – | – |
| CC[C@@]1(O)C[C@H](O[C@H]2C[C@H](N(C)C)[C@H](O[C@H]3C[C@H](O)[C@H](O[C@H]4CCC(=O)[C@H](C)O4)[C@H](C)O3)[C@H](C)O2)c2c(cc3c(c2O)C(=O)c2c(O)cccc2C3=O)[C@H]1C(=O)OC [Aclacinomycin] | – | – | – | ↓↓↓^b (more than 2 standard deviations (s.d.) less than the mean (↓↓↓)) | ↓↓↓ (more than 2 standard deviations (s.d.) less than the mean (↓↓↓)) | ↓↓↓ (more than 2 standard deviations (s.d.) less than the mean (↓↓↓)) | yes | – | inhibited GR | blocked the activation | blocked the activation | did not inhibit repression | Increases | antagonists of GR | reduced GR activation of pENaC-luc much more than the constitutive reporter | inhibited GR at the tested promoters | – |
| CC[C@@]1(O)C[C@H](O[C@H]2C[C@H](N(C)C)[C@H](O[C@H]3C[C@@H]4O[C@H]5CC(=O)[C@H](C)O[C@H]5O[C@@H]4[C@H](C)O3)[C@H](C)O2)c2c(cc3c(c2O)C(=O)c2c(O)ccc(O)c2C3=O)[C@H]1C(=O)OC [Cin B, Cinerubin (Cin) B] | – | – | – | – | – | – | – | – | – | – | – | – | – | potently inhibited GR activity | – | inhibited GR at the tested promoters | – |
| CC[C@@]1(O)C[C@H](O[C@H]2C[C@H](N(C)C)[C@H](O[C@H]3C[C@H](O)[C@H](O[C@H]4C[C@H](O)[C@H](O)[C@H](C)O4)[C@H](C)O3)[C@H](C)O2)c2c(cc3c(c2O)C(=O)c2c(O)ccc(O)c2C3=O)[C@H]1C(=O)OC [marcellomycin] | – | – | – | – | – | – | – | – | – | – | – | – | – | no impact on GR-mediated induction of the reporter | – | – | similar |
